For two compounds, EC50 results are on record in patent EP4790066A1, “GLP-1R/GIPR/GCGR TRIPLE AGONIST ANALOGUE AND USE THEREOF” (Shenzhen Bay Laboratory, priority 2023, dated 2025).

Common to all, as to assay type: cell-based
One assay deals with T1, GCGR (Homo sapiens, UniProt P47871).
T1 construct: expressed in transfected cells
The assay is described as follows: CreLuc method (CRE-luciferase reporter), 293HEK/pGM-CREB-L-Luc/GCGR pool. To be noted: 6 h incubation, read-out: EC50 (pM) for each receptor GCGR. The procedure:
(§1) 1. Insulinotropic analogues can bind to the target receptor on the cell membrane, activate the cAMP response element (CRE), and initiate the expression of downstream luciferase. The expression level is positively correlated with the biological activity of the analogue being tested. After activation, luciferase substrate is added for chemiluminescence detection, and the luminescence intensity is determined to characterize the biological activity of the test compounds. Therefore, the target peptide derivatives (or polypeptide derivatives, i.e., TG1-TG94) prepared in Example 1 and Example 2 can be tested by the CreLuc method. The specific steps are as follows: The stably transfected cell lines HEK293/pGM-CREB-L-Luc/GLP-1R pool, HEK293/pGM-CREB-L-Luc/GIPR pool, and 293HEK/pGM-CREB-L-Luc/GCGR pool were constructed. […] The corresponding test cells were digested (1 min), dispersed by pipetting, and centrifuged (1000 rpm, 5 min). The culture medium was discarded, and the cells were resuspended in freestyle medium, centrifuged again, collected, and counted. The cells were then diluted to a cell density of 5 x 10^5 cells/mL and then added to the detection wells of a 384-well plate (40 µL/20,000 cells/well). Echo was used to add the corresponding analyte dilution series. The cell plate was incubated at 37°C and 5% CO2 for 6 h, then ONE-GLO (20 µL/well) was added for detection. It was kept in the dark for 3 min, then a chemiluminescent microplate reader was used for determination. The plate was read within 30 min, and the determination results were recorded. […] Table 3: EC50 values for target peptide derivatives

For another assay, the target named is T2, GIPR (Homo sapiens, UniProt P48546).
T2 construct: expressed in transfected cells
T2 sequence (P48546 22-466): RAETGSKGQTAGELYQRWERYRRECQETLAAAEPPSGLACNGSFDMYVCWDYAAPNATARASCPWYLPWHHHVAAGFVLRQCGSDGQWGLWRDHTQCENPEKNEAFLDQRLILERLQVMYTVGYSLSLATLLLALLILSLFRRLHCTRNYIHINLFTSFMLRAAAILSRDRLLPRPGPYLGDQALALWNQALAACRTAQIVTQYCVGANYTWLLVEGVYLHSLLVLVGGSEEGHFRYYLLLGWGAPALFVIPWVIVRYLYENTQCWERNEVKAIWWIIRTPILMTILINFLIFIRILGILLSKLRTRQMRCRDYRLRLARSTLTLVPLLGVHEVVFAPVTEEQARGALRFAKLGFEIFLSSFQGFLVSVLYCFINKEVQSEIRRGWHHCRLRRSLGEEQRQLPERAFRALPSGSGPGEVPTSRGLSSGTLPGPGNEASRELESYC
In words: CreLuc method (CRE-luciferase reporter), HEK293/pGM-CREB-L-Luc/GIPR pool. To be noted: 6 h incubation, read-out: EC50 (pM) for each receptor GIPR. The procedure:
as §1

Another assay deals with T3, GLP-1R (Homo sapiens, UniProt P43220).
T3 construct: expressed in transfected cells
In words: CreLuc method (CRE-luciferase reporter), HEK293/pGM-CREB-L-Luc/GLP-1R pool. To be noted: 6 h incubation, read-out: EC50 (pM) for each receptor GLP-1R. The procedure:
as §1

The structures appear in SMILES notation. *1 amine or outer side, *2 acyl side, *3 side chain or, on linkers, in order; H or OH if unused. Where a SMILES comes first, the peptide text is derived from it. Bridges are numbered along the chain shown (N, C = ends). [ ]: non-standard residue; d: D form. X1 = O=C(O)CCCCCCCCCCCCCCCCCCC(=O)N[C@@H](CCCCNC(=O)COCCOCCNC(=O)COCCOCCNC(=O)CCC(=O)N(CCNC(=O)C[*:1])CCNC(=O)C[*:2])C(=O)O; Aib = CC(C)(N)C(=O)O

T1 sequence (P47871 26-477, species assumed): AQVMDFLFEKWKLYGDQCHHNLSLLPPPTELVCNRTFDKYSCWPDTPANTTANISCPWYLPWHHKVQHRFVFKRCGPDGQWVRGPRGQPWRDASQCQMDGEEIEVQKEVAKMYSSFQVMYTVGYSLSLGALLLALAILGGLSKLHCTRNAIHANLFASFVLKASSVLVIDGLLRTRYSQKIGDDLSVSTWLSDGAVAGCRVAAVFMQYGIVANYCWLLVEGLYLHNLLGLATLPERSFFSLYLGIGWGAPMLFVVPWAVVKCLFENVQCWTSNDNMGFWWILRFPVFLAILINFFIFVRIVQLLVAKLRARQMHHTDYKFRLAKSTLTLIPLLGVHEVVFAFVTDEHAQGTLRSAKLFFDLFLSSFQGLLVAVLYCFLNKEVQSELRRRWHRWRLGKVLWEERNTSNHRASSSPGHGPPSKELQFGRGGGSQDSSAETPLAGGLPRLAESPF
T3 sequence (P43220 24-463, species assumed): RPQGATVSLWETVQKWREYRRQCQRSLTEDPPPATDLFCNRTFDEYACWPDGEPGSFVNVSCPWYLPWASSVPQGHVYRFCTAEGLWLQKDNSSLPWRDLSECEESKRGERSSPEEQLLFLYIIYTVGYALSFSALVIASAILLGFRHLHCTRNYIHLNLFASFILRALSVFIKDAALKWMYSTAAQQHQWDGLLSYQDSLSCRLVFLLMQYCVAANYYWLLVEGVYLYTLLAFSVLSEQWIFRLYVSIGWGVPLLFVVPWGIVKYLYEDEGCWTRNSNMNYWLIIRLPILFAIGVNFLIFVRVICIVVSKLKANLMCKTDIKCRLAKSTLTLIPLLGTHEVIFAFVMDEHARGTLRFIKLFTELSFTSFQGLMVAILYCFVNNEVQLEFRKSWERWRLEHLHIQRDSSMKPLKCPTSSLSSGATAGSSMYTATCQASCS

On to `CC(=O)NCCCC[C@H](NC(=O)[C@H](CCC(=O)O)NC(=O)[C@H](CC(C)C)NC(=O)[C@H](Cc1ccc(O)cc1)NC(=O)[C@H](CCCCN)NC(=O)[C@H](CO)NC(=O)[C@H](Cc1ccc(O)cc1)NC(=O)[C@H](CC(=O)O)NC(=O)[C@H](CO)NC(=O)[C@@H](NC(=O)[C@H](Cc1ccccc1)NC(=O)[C@@H](NC(=O)CNC(=O)[C@H](Cc1c[nH]cn1)NC(=O)C(C)(C)NC(=O)[C@@H](N)Cc1c[nH]cn1)[C@@H](C)O)[C@@H](C)O)C(=O)N[C@@H](CCCCN)C(=O)N[C@@H](Cc1ccc(O)cc1)C(=O)N[C@@H](C)C(=O)NC(C)(C)C(=O)N[C@H]1CSCC(=O)NCCN(C(=O)CCC(=O)NCCOCCOCC(=O)NCCOCCOCC(=O)NCCCC[C@H](NC(=O)CCCCCCCCCCCCCCCCCCC(=O)O)C(=O)O)CCNC(=O)CSC[C@@H](C(=O)NCC(=O)NCC(=O)N2CCC[C@H]2C(=O)N[C@@H](CO)C(=O)N[C@@H](CO)C(=O)NCC(=O)N[C@@H](C)C(=O)N2CCC[C@H]2C(=O)N2CCC[C@H]2C(=O)N2CCC[C@H]2C(=O)N[C@@H](CO)C(N)=O)NC(=O)[C@H](CC(C)C)NC(=O)[C@H](CC(C)C)NC(=O)[C@H](Cc2c[nH]c3ccccc23)NC(=O)[C@H](CCC(N)=O)NC(=O)[C@H](C(C)C)NC(=O)[C@H](Cc2ccccc2)NC1=O` [TG14] (H-H[Aib]HGTFTSDYSKYLEK(Ac)KYA[Aib]CFVQWLLCGGPSSGAPPPS-NH2; linker 21-28 via X1), for which the results for the EC50 on GCGR, at GIPR and on GLP-1R were 277 pM, 752 pM and 311 pM, respectively.
Consider `CC[C@H](C)[C@@H]1NC(=O)[C@H](Cc2ccccc2)NC(=O)[C@@H](NC(=O)C(C)(C)NC(=O)[C@H](CCC(N)=O)NC(=O)[C@H](C)NC(=O)[C@H](CCCCNC(C)=O)NC(=O)[C@H](CCCCN)NC(=O)[C@H](CC(=O)O)NC(=O)[C@H](CC(C)C)NC(=O)[C@](C)(CC(C)C)NC(=O)[C@@H](NC(=O)[C@H](CO)NC(=O)[C@H](Cc2ccc(O)cc2)NC(=O)[C@H](CC(=O)O)NC(=O)[C@H](CO)NC(=O)[C@@H](NC(=O)[C@H](Cc2ccccc2)NC(=O)[C@@H](NC(=O)CNC(=O)[C@H](Cc2c[nH]cn2)NC(=O)C(C)(C)NC(=O)[C@@H](N)Cc2ccc(O)cc2)[C@@H](C)O)[C@@H](C)O)[C@@H](C)CC)CSCC(=O)NCCN(C(=O)CCC(=O)NCCOCCOCC(=O)NCCOCCOCC(=O)NCCCC[C@H](NC(=O)CCCCCCCCCCCCCCCCCCC(=O)O)C(=O)O)CCNC(=O)CSC[C@@H](C(=O)NCC(=O)NCC(=O)N2CCC[C@H]2C(=O)N[C@@H](CO)C(=O)N[C@@H](CO)C(=O)NCC(=O)N[C@@H](C)C(=O)N2CCC[C@H]2C(=O)N2CCC[C@H]2C(=O)N2CCC[C@H]2C(=O)N[C@@H](CO)C(N)=O)NC(=O)[C@H](CC(C)C)NC(=O)[C@H](CC(C)C)NC(=O)[C@H](Cc2ccc(O)cc2)NC(=O)[C@H](CCC(=O)O)NC1=O` [TG42], for which the EC50 stood at 99.4 pM on GCGR, 21.3 pM on GIPR and 477 pM at GLP-1R.
